Biological target: T1, GLUT1 (Homo sapiens, UniProt P11166)
T1 sequence (P11166 1-492): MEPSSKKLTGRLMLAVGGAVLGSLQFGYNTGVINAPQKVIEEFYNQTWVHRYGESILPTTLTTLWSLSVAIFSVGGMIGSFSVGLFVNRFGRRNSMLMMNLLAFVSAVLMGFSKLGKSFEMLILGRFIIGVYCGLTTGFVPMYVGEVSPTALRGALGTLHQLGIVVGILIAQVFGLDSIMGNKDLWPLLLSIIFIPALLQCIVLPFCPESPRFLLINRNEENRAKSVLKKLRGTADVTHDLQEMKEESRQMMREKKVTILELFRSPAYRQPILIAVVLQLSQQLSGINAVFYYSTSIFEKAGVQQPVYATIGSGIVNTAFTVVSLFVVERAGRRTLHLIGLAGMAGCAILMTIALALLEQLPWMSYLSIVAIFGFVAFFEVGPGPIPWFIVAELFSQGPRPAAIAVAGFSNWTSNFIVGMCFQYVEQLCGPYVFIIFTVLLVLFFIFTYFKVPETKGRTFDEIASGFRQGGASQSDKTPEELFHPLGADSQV
Test: Indirect measurement of GLUT1 activity by quantification of intracellular ATP levels (glucose induced ATP increase)
Assay type: cell-based
Parameters: endogenous in cells; host or cells: DLD1 or CHO-K1
Settings: DLD1 cells; 0.1 mM glucose, 1 μM Rotenone, 15 min; CellTiter-Glo ATP readout; IC50 values standardized to cytochalasin B IC50 values; read-out: IC50 regarding glucose induced ATP increase (GLUT1 inhibition)
Outline: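 Intracellular ATP was measured by CellTiter-Glo luminescence as an indirect readout of transport: glucose-driven for GLUT1, fructose-driven for GLUT2. DLD1 or CHO-K1 cells were used alongside an oxidative phosphorylation inhibitor. Beforehand, cells were held overnight in glucose-free 1% FCS medium to deplete ATP.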

Row | IC50 [nM] | Molecule
1 | 1.9 | 6-cyano N^4-[1-(4-cyanobenzyl)-5-methyl-3-(trifluoromethyl)-1H-pyrazol-4-yl]quinoline-2,4-dicarboxamide [Example 337]

Same assay, conditions: read-out: IC50 regarding glucose induced ATP increase (GLUT1 inhibition)

Row | Molecule | IC50 [nM]
2 | COc1ccc(Cn2nc(C(F)(F)F)c(NC(=O)c3cc(C(N)=O)nc4ccccc34)c2C)cn1 [Example 280, N^4-{1-[(6-methoxypyridin-3-yl)methyl]-5-methyl-3-(trifluoromethyl)-1H-pyrazol-4-yl}quinoline-2,4-dicarboxamide] | 1.1
3 | Cc1nn(Cc2ccc(C#N)cn2)c(C)c1NC(=O)c1cc(C(N)=O)nc2ccccc12 [Example 355, N^4-{1-[(5-cyanopyridin-2-yl)methyl]-3,5-dimethyl-1H-pyrazol-4-yl}quinoline-2,4-dicarboxamide] | 3.9
4 | Cc1nn(Cc2ccc(C#N)cc2)c(C)c1NC(=O)c1cc(C(N)=O)nc2cccc(C)c12 [Example 257, N^4-[1-(4-cyanobenzyl)-3,5-dimethyl-1H-pyrazol-4-yl]-5-methylquinoline-2,4-dicarboxamide] | 2.4
5 | Cc1nn(Cc2ccc(C(=O)N[C@H]3CC[C@H](O)CC3)cc2)c(C)c1NC(=O)c1cc(C(F)(F)F)nc2ccc(Br)cc12 [Example 1053] | 13.7
6 | Cc1nn(Cc2ccc(F)cc2)c(C)c1NC(=O)c1cc(C(C)C)nc2ccc(Br)cc12 [Example 2, 6-bromo-N-[1-(4-fluorobenzyl)-3,5-dimethyl-1H-pyrazol-4-yl]-2-(propan-2-yl)quinoline-4-carboxamide] | 2.8
7 | COc1cc(C(=O)Nc2c(C)nn(Cc3cccc(C)c3)c2C)c2ccccc2n1 [Example 76, N-[3,5-dimethyl-1-(3-methylbenzyl)-1H-pyrazol-4-yl]-2-methoxyquinoline-4-carboxamide] | 188
8 | Cc1c(NC(=O)c2cc(C(N)=O)nc3cc(F)ccc23)c(C(F)(F)F)nn1C(C)c1ccccc1 (single isomer, unassigned) [Example 335, (R or S)-7-fluoro-N^4-[5-methyl-1-(1-phenylethyl)-3-(trifluoromethyl)-1H-pyrazol-4-yl]quinoline-2,4-dicarboxamide] | 1.6
9 | Cc1nn(Cc2ccc(C(=O)NCCN(C)C)cn2)c(C)c1NC(=O)c1cc(C(F)(F)F)nc2ccc(Br)cc12 [Example 1292] | 7380
10 | Cc1ccc2nc(C)cc(C(=O)Nc3c(C(F)(F)F)nn(Cc4ccc(F)cc4F)c3C)c2c1 [Example 204, N-[1-(2,4-difluorobenzyl)-5-methyl-3-(trifluoromethyl)-1H-pyrazol-4-yl]-2,6-dimethylquinoline-4-carboxamide] | 613
11 | Cc1c(NC(=O)c2cc(C(N)=O)nc3cc(F)c(Cl)cc23)c(C(F)(F)F)nn1Cc1ccncc1C#N [Example 287, 6-chloro-N^4-{1-[(3-cyanopyridin-4-yl)methyl]-5-methyl-3-(trifluoromethyl)-1H-pyrazol-4-yl}-7-fluoroquinoline-2,4-dicarboxamide] | 4.8
12 | COc1ccc(Cn2nc(C(F)(F)F)c(NC(=O)c3cc(C(N)=O)nc4ccccc34)c2C)cc1 [Example 277, N^4-[1-(4-methoxybenzyl)-5-methyl-3-(trifluoromethyl)-1H-pyrazol-4-yl]quinoline-2,4-dicarboxamide] | 1.8
13 | Cc1nn(Cc2ccccc2C(F)(F)F)c(C)c1NC(=O)c1cc(C(F)(F)F)nc2ccc(Br)cc12 [Example 1301] | 11100
14 | Cc1nn(Cc2ccc(C(=O)Nc3ccncn3)cc2)c(C)c1NC(=O)c1cc(C(F)(F)F)nc2ccc(Br)cc12 [Example 1158] | 155
15 | Cc1nn(Cc2ccc(F)cc2)c(C)c1NC(=O)c1cc(C(N)=O)nc2ccccc12 [Example 122, N^4-[1-(4-fluorobenzyl)-3,5-dimethyl-1H-pyrazol-4-yl]quinoline-2,4-dicarboxamide] | 1.9
16 | Cc1nn(Cc2cccc(C#N)c2)c(C)c1NC(=O)c1cc(C(F)(F)F)nc2ccc(Br)cc12 [Example 71, 6-bromo-N-[1-(3-cyanobenzyl)-3,5-dimethyl-1H-pyrazol-4-yl]-2-(trifluoromethyl)quinoline-4-carboxamide] | 175
17 | Cc1nn(Cc2ccc(F)cc2)c(C)c1NC(=O)c1cc(C(F)(F)F)nc2ccc(C(=O)O)cc12 [Example 1267] | 2710
18 | Cc1nn(CC2CCN(C(=O)OC(C)(C)C)CC2)c(C)c1NC(=O)c1cc(C(F)(F)F)nc2ccc(Br)cc12 [Example 1201] | 428
19 | Cc1c(NC(=O)c2cc(C(N)=O)nc3cc(F)ccc23)c(C(F)(F)F)nn1Cc1ncc(C#N)cn1 [Example 423, N^4-{1-[(5-cyanopyrimidin-2-yl)methyl]-5-methyl-3-(trifluoromethyl)-1H-pyrazol-4-yl}-7-fluoroquinoline-2,4-dicarboxamide] | 6.7
20 | Cc1nn(Cc2c(F)cc(C#N)cc2F)c(C)c1NC(=O)c1cc(C(N)=O)nc2cc(F)c(Cl)cc12 [Example 392, 6-chloro-N^4-[1-(4-cyano-2,6-difluorobenzyl)-3,5-dimethyl-1H-pyrazol-4-yl]-7-fluoroquinoline-2,4-dicarboxamide] | 21.6
21 | Cc1cc(C(=O)Nc2c(C)nn(Cc3ccc(F)cc3)c2C)c2ccccc2n1 [Example 105, N-[1-(4-fluorobenzyl)-3,5-dimethyl-1H-pyrazol-4-yl]-2-methylquinoline-4-carboxamide] | 528
22 | Cc1nn(Cc2ccc(C(=O)NCc3ccc(-c4nnn[nH]4)cc3)cc2)c(C)c1NC(=O)c1cc(C(F)(F)F)nc2ccc(Br)cc12 [Example 1060] | 15.8

Results, then the molecule that gave them:

Row | IC50 [nM] | Molecule
23 | 16900 | Cc1cc(C(=O)Nc2c(C)nn(Cc3ccc(F)cc3)c2C)c2cccc(C#N)c2n1 [Example 1308]
24 | 9.6 | Cc1nn(Cc2ccc(S(C)(=O)=O)cc2)c(C)c1NC(=O)c1cc(C(N)=O)nc2ccc(Br)cc12 [Example 1486]
25 | 168 | CCS(=O)(=O)N1CCC(Cn2nc(C)c(NC(=O)c3cc(C(F)(F)F)nc4ccc(Br)cc34)c2C)CC1 [Example 1533]
26 | 21 | Cc1c(NC(=O)c2cc(C(N)=O)nc3cc(F)ccc23)c(C(F)(F)F)nn1Cc1csc(C#N)n1 [Example 1674]
27 | 14300 | Cc1nn(Cc2ccc(F)cc2)c(C)c1NC(=O)c1cc(C(F)(F)F)nc2c(C(F)(F)F)cccc12 [Example 1307]
28 | 4.3 | Cc1c(NC(=O)c2cc(C(N)=O)nc3ccccc23)c(C(F)(F)F)nn1C(C)c1ccccc1 (racemic) [Example 1397]
29 | 3.9 | COCc1ccc(Cn2nc(C)c(NC(=O)c3cc(C(N)=O)nc4cc(F)ccc34)c2C)cc1 [Example 1582]
30 | 14.2 | Cc1nn(Cc2cc(C#N)no2)c(C)c1NC(=O)c1cc(C(N)=O)nc2cc(F)ccc12 [Example 1566]
31 | 5.4 | Cc1c(NC(=O)c2cc(C(N)=O)nc3cc(F)ccc23)c(C(F)(F)F)nn1Cc1ccc(OC(F)(F)F)cc1 [Example 1466]
32 | 23.2 | COc1cccc(Cn2nc(C(F)(F)F)c(NC(=O)c3cc(C(N)=O)nc4cc(F)ccc34)c2C)c1 [Example 1447]
33 | 36.9 | Cc1nn(Cc2cccc(OC(F)(F)F)c2)c(C)c1NC(=O)c1cc(C(N)=O)nc2cc(F)ccc12 [Example 1586]
34 | 9.7 | Cc1nn(Cc2ccc(C#N)cc2)c(C)c1NC(=O)c1cc(S(=O)(=O)N(C)C)nc2ccccc12 [Example 1577]
35 | 98.7 | Cc1nn(CC2CCN(S(=O)(=O)C(C)C)CC2)c(C)c1NC(=O)c1cc(C(N)=O)nc2ccccc12 [Example 1517]
36 | 39 | COCCNC(=O)c1ccc(Cn2nc(C)c(NC(=O)c3cc(C(N)=O)nc4cc(F)ccc34)c2C)cc1 [Example 1421]

Reference: US20170037028A1 (BAYER PHARMA AKTIENGESELLSCHAFT, priority 2013, published 2017)
